# Target: T1, human full-length recombinant PKC βII (Homo sapiens, UniProt P05771)
# T1 construct: Active human full-length recombinant PKC βII; purchased Invitrogen GmbH, Darmstadt, Germany
# Assay: Determination of PKC βII inhibition (Caliper mobility-shift kinase assay, phosphorylation of fluorescein peptide substrate)
# Type: biochemical
# Conditions: final compound concentration 1.14 µM (±0.15 µM); 60 min incubation at 32 °C
# Experimental: Determination of PKC βII inhibition
# PKC βII inhibition was determined according to the following protocol:
# Active human full-length recombinant PKC βII and the peptide substrate, Fluorescein-RFARKGSLRQKNV, were purchased from Invitrogen GmbH, Darmstadt, Germany. Adenosine-5'-triphosphate (ATP), bovine serum albumine (BSA), dimethylsulphoxide (DMSO), 4-(2-hydroxyethyl)piperazine-1-ethanesulfonic acid (Hepes), Triton X-100, 1,2-Dioleoyl-sn-glycerol (DAG), L-α-Phosphatidyl-L-serine (PS), calcium chloride (CaCl2), and Pluronic F-68 were purchased from Sigma-Aldrich, Munich, Germany. Magnesium chloride, 1 M sodium hydroxide solution, 1M hydrochloric acid solution and EDTA were obtained from Merck Biosciences, Darmstadt, Germany.
# Test compounds were diluted to three times the test concentration in buffer 1 (30 mM Hepes-NaOH, pH 7.4, 0.01 % Pluronic F-68 and 3 % (v/v) DMSO). The PKC βII enzyme was diluted to a concentration of 30 ng/ml in buffer 2 (30 mM Hepes-NaOH, pH 7.4, 15 mM MgCl2,150 µM CaCl2, 150 µg/ml PS, 60 µg/ml DAG, and 0.045 % (w/v) Triton X-100). The peptide substrate and ATP were diluted to concentrations of 3 µM and 120 µM, respectively, in buffer 2. Two µl of the compound solution were mixed with 2 µl of the diluted enzyme in a 384-well small volume microtiter plate (Greiner, Bio-One, Frickenhausen, Germany), and the kinase reaction was initiated by addition of 2 µl of the solution containing peptide substrate and ATP. After 60 min incubation at 32 °C, the reaction was stopped by addition of 20 µl of a solution containing 130 mM Hepes-NaOH, pH 7.4, 0.0195 % (v/v) Brij-35, 6.5 mM EDTA, 0.13 % chip coating reagent 3 (Caliper Lifescience Inc, Hopkinton, MA) and 6.5 % (v/v) DMSO. Phosphorylation of the substrate peptide was then detected on a Caliper 3000 instrument essentially as described by Pommereau et al (J. Biomol. Screening 2004, 9(5), 409-416). Separation conditions were as follows: Pressure -0.8 psi, upstream voltage - 3000 V, downstream voltage -800 V. Positive controls (buffer 1 instead of compound) and negative controls (buffer 1 instead of compound and buffer 2 instead of kinase solution) were run in parallel on each plate. Fractional turnover (R) was determined as the height of the peak of the phosphorylated peptide product divided by the sum of the unphosphorylated substrate and phosphorylated product peak heights. Percent-inhibition values for the test compounds were determined using the formula % Inhibition = 100*(1-(Rcompound-Rnegative control)/(Rpositive control-Rnegative control). [formula]
# In the following table % inhibition values observed with example compounds at a final concentration of 1.14 µM (±0.15 µM) are listed: […]
# T1 sequence (P05771 1-673 isoform P05771-2): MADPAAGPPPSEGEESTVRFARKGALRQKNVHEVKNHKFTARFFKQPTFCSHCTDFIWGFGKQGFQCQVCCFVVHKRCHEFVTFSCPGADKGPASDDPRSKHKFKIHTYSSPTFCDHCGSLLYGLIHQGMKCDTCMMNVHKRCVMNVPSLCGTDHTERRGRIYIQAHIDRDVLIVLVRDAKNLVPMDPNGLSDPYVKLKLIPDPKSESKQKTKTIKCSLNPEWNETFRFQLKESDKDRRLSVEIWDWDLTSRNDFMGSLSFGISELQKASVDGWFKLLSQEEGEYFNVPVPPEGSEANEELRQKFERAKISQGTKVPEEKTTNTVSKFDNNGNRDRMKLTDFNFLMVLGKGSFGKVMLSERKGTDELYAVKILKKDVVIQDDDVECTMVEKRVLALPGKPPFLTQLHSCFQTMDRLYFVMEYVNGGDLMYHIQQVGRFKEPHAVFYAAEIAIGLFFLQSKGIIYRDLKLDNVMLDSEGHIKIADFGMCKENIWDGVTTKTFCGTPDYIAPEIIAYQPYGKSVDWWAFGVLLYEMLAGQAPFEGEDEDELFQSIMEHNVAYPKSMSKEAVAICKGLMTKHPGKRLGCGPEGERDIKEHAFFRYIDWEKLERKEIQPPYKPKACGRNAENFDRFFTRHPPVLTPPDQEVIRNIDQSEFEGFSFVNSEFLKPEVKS
row,SMILES,inhibition at 1.14 µM [%]
1,"Cc1ccc(/C=C/c2n[nH]c3nc(-c4ccc(O)cc4)cc(C(=O)N4CCNCC4)c23)c(C)c1 [Example 49, [3-[(E)-2-(2,4-Dimethylphenyl)-vinyl]-6-(4-hydroxy-phenyl)-1H-pyrazolo[3,4-b]pyridin-4-yl]-piperazin-1-yl-methanone]",88
2,"O=C(c1cc(-c2ccc(O)cc2)nc2[nH]nc(/C=C/c3ccccc3)c12)N1CCN(C2CC2)CC1 [Example 85, (4-Cyclopropyl-piperazin-1-yl)-[6-(4-hydroxy-phenyl)-3-((E)-styryl)-1H-pyra-zolo[3,4-b]py-ridin-4-yl]-methanone]",19
3,"O=C(c1cccnc1)N1CCN(C(=O)c2cc(-c3ccc(O)cc3)nc3[nH]nc(/C=C/c4ccccc4)c23)CC1 [Example 83, [6-(4-Hydroxy-phenyl)-3-((E)-styryl)-1H-pyra-zolo[3,4-b]pyri-din-4-yl]-[4-(pyridine-3-carbonyl)-piperazin-1-yl]-methanone]",90
4,"N#Cc1cccc(/C=C/c2n[nH]c3nc(-c4ccc(O)cc4)cc(C(=O)N4CCNCC4)c23)c1 [Example 25, 3-{(E)-2-[6-(4-Hydroxy-phenyl)-4-(piperazine-1-carbonyl)-1H-pyrazolo[3,4-b]pyridin-3-yl]-vinyl}-benzonitrile]",99
5,"O=C(c1cc(-c2ccc(O)cc2)nc2[nH]nc(/C=C/c3ccc(F)c(F)c3)c12)N1CCNCC1 [Example 59, [3-[(E)-2-(3,4-Difluoro-phenyl)-vinyl]-6-(4-hydroxy-phenyl)-1H-pyrazolo[3,4-b]pyridin-4-yl]-piperazin-1-yl-methanone]",97
6,"O=C(c1cc(-c2ccc(O)cc2)nc2[nH]nc(/C=C/c3ccc(Cl)cc3)c12)N1CCNCC1 [Example 1, [3-[(E)-2-(4-Chloro-phenyl)-vinyl]-6-(4-hydroxy-phenyl)-1 H-pyrazolo[3,4-b]pyridin-4-yl]-piperazin-1-yl-methanone]",86
7,"Cc1ccc(C)c(/C=C/c2n[nH]c3nc(-c4ccc(O)cc4)cc(C(=O)N4CCNCC4)c23)c1 [Example 50, [3-[(E)-2-(2,5-Dimethylphenyl)-vinyl]-6-(4-hydroxy-phenyl)-1H-pyrazolo[3,4-b]pyridin-4-yl]-piperazin-1-yl-methanone]",92
8,"CC(C)(O)C(=O)N1CCN(C(=O)c2cc(-c3ccc(O)cc3)nc3[nH]nc(/C=C/c4ccccc4)c23)CC1 [Example 86, 2-Hydroxy-1-{4-[6-(4-hydroxy-phenyl)-3-((E)-styryl)-1H-pyra-zolo[3,4-b]pyri-dine-4-carbonyl]-piperazin-1-yl}-2-methyl-propan-1-one]",93
9,"O=C(c1cc(-c2ccc(O)cc2)nc2[nH]nc(/C=C/c3ccc(Cl)c(Cl)c3)c12)N1CCNCC1 [Example 45, [3-[(E)-2-(3,4-Dichloro-phenyl)-vinyl]-6-(4-hydroxy-phenyl)-1H-pyrazolo[3,4-b]pyridin-4-yl]-piperazin-1-yl-methanone]",61
10,"CC(C)(C)c1ccc(/C=C/c2n[nH]c3nc(-c4ccc(O)cc4)cc(C(=O)N4CCNCC4)c23)cc1 [Example 54, [3-[(E)-2-(4-tert-Butyl-phenyl)-vinyl]-6-(4-hydroxy-phenyl)-1H-pyrazolo[3,4-b]pyridin-4-yl]-piperazin-1-yl-methanone]",95
11,"C[C@@H]1CN(C(=O)c2cc(-c3ccc(O)cc3)nc3[nH]nc(/C=C/c4ccccc4)c23)[C@@H](C)CN1 [Example 8, ((2S,5R)-2,5-Dimethyl-piperazin-1-yl)-[6-(4-hydroxy-phenyl)-3-((E)-styryl)-1H-pyrazolo[3,4-b]pyridin-4-yl]-methanone]",97
12,"Cc1cccc(/C=C/c2n[nH]c3nc(-c4ccc(O)cc4)cc(C(=O)N4CCNCC4)c23)c1 [Example 38, [6-(4-Hydroxy-phenyl)-3-((E)-2-m-tolyl-vinyl)-1H-pyrazolo[3,4-b]pyridin-4-yl]-piperazin-1-yl-methanone]",98
13,"Cc1ccc(/C=C/c2n[nH]c3nc(-c4ccc(O)cc4)cc(C(=O)N4CCNCC4)c23)c(F)c1 [Example 63, [3-[(E)-2-(2-Fluoro-4-methyl-phenyl)-vinyl]-6-(4-hydroxy-phenyl)-1H-pyrazolo[3,4-b]pyridin-4-yl]-piperazin-1-yl-methanone]",97

# The remaining lines, values ahead:
row,inhibition at 1.14 µM [%],SMILES
1,96,"Cc1cc(/C=C/c2n[nH]c3nc(-c4ccc(O)cc4)cc(C(=O)N4CCNCC4)c23)ccc1C#N [Example 29, 4-{(E)-2-[6-(4-Hydroxy-phenyl)-4-(piperazine-1-carbonyl)-1H-pyrazolo[3,4-b]pyridin-3-yl]-vinyl}-2-methyl-benzonitrile]"
2,98,"C[C@H]1CNCCN1C(=O)c1cc(-c2ccc(O)cc2)nc2[nH]nc(/C=C/c3ccccc3)c12 [Example 6, [6-(4-Hydroxy-phenyl)-3-((E)-styryl)-1H-pyrazolo[3,4-b]pyridin-4-yl]-((S)-2-methyl-piperazin-1-yl)-methanone]"
3,94,"O=C(c1cc(-c2ccc(O)cc2)nc2[nH]nc(/C=C/c3ccccc3)c12)N1CCC2(CCNC2)C1 (stereo not shown) [Example 78, (2,7-Diaza-spiro-[4.4]non-2-yl)-[6-(4-hydroxy-phenyl)-3-((E)-styryl)-1H-pyra-zolo[3,4-b]py-ridin-4-yl]-methanone]"
4,45,"O=C(CN1CCOCC1)N1CCN(C(=O)c2cc(-c3ccc(O)cc3)nc3[nH]nc(/C=C/c4ccccc4)c23)CC1 [Example 81, 1-{4-[6-(4-Hydroxy-phenyl)-3-((E)-styryl)-1H-pyrazolo[3,4-b]-pyridine-4-car-bonyl]-piperazin-1-yl}-2-mor-pholin-4-yl-ethanone]"
5,94,"O=C(c1cc(-c2ccc(O)cc2)nc2[nH]nc(CCc3ccccc3)c12)N1CCNCC1 [Example 17, [6-(4-Hydroxy-phenyl)-3-phenethyl-1H-pyrazolo[3,4-b]pyridin-4-yl]-piperazin-1-yl-methanone]"
6,56,"COC(=O)N1CCN(C(=O)c2cc(-c3ccc(O)cc3)nc3[nH]nc(/C=C/c4ccccc4)c23)CC1 [Example 82, 4-[6-(4-Hydroxy-phenyl)-3-((E)-styryl)-1H-pyra-zolo[3,4-b]pyri-dine-4-carbonyl]-piperazine-1-carboxylic acid methyl ester]"
7,97,"O=C(c1cc(-c2ccc(O)cc2)nc2[nH]nc(/C=C/c3ccccc3)c12)N1CCNCC1 [Example 2, [6-(4-Hydroxy-phenyl)-3-((E)-styryl)-1H-pyrazolo[3,4-b]pyridin-4-yl]-piperazin-1-yl-methanone]"
8,98,"CC(=O)c1ccc(/C=C/c2n[nH]c3nc(-c4ccc(O)cc4)cc(C(=O)N4CCNCC4)c23)cc1 [Example 57, 1-(4-{(E)-2-[6-(4-Hydroxy-phenyl)-4-(piperazine-1-carbonyl)-1H-pyrazolo[3,4-b]pyridin-3-yl]-vinyl}-phenyl)-ethanone]"
9,76,"Cc1ccc(/C=C/c2n[nH]c3nc(-c4ccc(O)cc4)cc(C(=O)N4CCNCC4)c23)cc1F [Example 55, [3-[(E)-2-(3-Fluoro-4-methyl-phenyl)-vinyl]-6-(4-hydroxy-phenyl)-1H-pyrazolo[3,4-b]pyridin-4-yl]-piperazin-1-yl-methanone]"
10,97,"O=C(c1cc(-c2ccc(O)c(F)c2)nc2[nH]nc(/C=C/c3ccccc3)c12)N1CCNCC1 [Example 12, [6-(3-Fluoro-4-hydroxy-phenyl)-3-((E)-styryl)-1H-pyrazolo[3,4-b]pyridin-4-yl]-piperazin-1-yl-methanone]"
11,93,"CC1(NC(=O)c2cc(-c3ccc(O)cc3)nc3[nH]nc(/C=C/c4ccccc4)c23)CCNCC1 [Example 75, 6-(4-Hydroxy-phenyl)-3-((E)-styryl)-1H-pyra-zolo[3,4-b]-pyridine-4-car-boxylic acid (4-methyl-piperidin-4-yl)-amide]"
12,39,"O=C(c1cc(-c2ccc(O)cc2)nc2[nH]nc(/C=C/c3ccc(Cl)cc3Cl)c12)N1CCNCC1 [Example 39, [3-[(E)-2-(2,4-Dichloro-phenyl)-vinyl]-6-(4-hydroxy-phenyl)-1H-pyrazolo[3,4-b]pyridin-4-yl]-piperazin-1-yl-methanone]"
